Measurements from patent US8110570B2, “Modulators of acetyl-coenzyme A carboxylase and methods of use thereof” (Cropsolution, Inc., priority 2008, dated 2012).

Experiments:
hACC1 = target: T1, hACC1 (Homo sapiens, UniProt Q13085); assay: [14C]bicarbonate incorporation assay, overall ACC activity; type: biochemical; settings: recombinant hACC1, overall ACC activity
T1 construct: PCR primers were designed for full-length hACC1 and hACC2 using GenBank submissions AY237919 and AJ575592, respectively; His tag (C); made in house; host or cells: baculovirus, Sf9 insect cells
Method: (§1) In vitro IC50 values of human ACC were determined using recombinant enzyme produced by standard procedures. For example, full-length cDNAs for both the human isoforms (hACC1 and hACC2) were each cloned and expressed as a recombinant protein using a baculovirus system. Double stranded cDNA from human fetal liver (Quick-Clone cDNA, cat. #7171-1) was purchased from BD/Clontech (Mt. View, Calif.). PCR primers were designed for full-length hACC1 and hACC2 using GenBank submissions AY237919 and AJ575592, respectively. The Advantage GC 2 PCR kit (BD/Clontech) was used for amplification. The PCR products (about 7 Kb) were TOPO-cloned into the pCR4Blunt vector (Invitrogen, Carlsbad, Calif.), and 6 clones of each gene were isolated. […] Full length versions of the two cDNAs corresponding to their respective Genbank sequences were assembled in pBluescript SK+ (Stratagene, La Jolla, Calif.) by combining error-free fragments from the PCR clones. The resulting hACC1 clone, designated pCS35, has six silent nucleotide differences compared to Genbank accession AY237919. The final hACC2 clone, designated pCS36, has ten silent nucleotide differences compared to Genbank accession AJ575592. Primers were designed to PCR amplify the cDNAs along with the in-frame 3′-his tag sequences from the pET vector and TOPO-cloned the resulting products into the Gateway® entry vector pENTR/D-TOPO. The ACC2 primers were designed to delete amino acids 1-148 and add Met-Gly in front of Lys149 in the final product. The resulting entry clones were transferred to BaculoDirect™ linear DNA (Invitrogen corp.) using the Gateway® LR recombination reaction. The recombinant baculovirus DNA was transfected into insect cells and viral amplification was performed according to the manufacturer's protocols. For protein expression sf9 cells were infected with a P3 viral stock in the presence of 50 uM biotin. The cells were harvested after 48-72 hr, lysed by sonication, and the resulting extract was clarified by centrifugation. ACC in the crude extract was concentrated by ammonium sulfate precipitation (40% w/v) and purified by Ni^2+-NTA chromatography (Novagen) followed by anion exchange chromatography on a UNO-Q column (BioRad).
(§2) Overall ACC activity in the hACC preparations is measured by following incorporation of [^14C]bicarbonate into […] essentially as described (Thumpy and Wakil, J Biol Chem 260, 6318-6323 (1985). Briefly, the reaction mixture (50 μL) contains: 50 mM Hepes (pH7.4), 20 mM K-Citrate, 20 mM Mg-Acetate 1.5 mM MgSO4, 2 mM DTT, 2 mM acetyl-CoA, 12 mM NaHCO3, 0.2 mM NaH^14CO3 (˜50 mCi/mmol), 0.01% (v/v) Triton X-100, 0.75 mg/mL BSA, 1% (v/v) DMSO (with or without inhibitor), and 0.3 μg (hACC1) or 0.15 μg (hACC2) enzyme. Reactions are initiated by the addition of ATP to a final concentration 2 mM. After 10 minutes at 37° C., the reaction is stopped by the addition of 2N HCl (50 μL). The samples are evaporated in a hood overnight, resuspended in H2O (200 μL), and incorporated label is quantified by scintillation counting in scintillation cocktail (3 mL). Inhibition data are fit to dose-response curves and IC50 values are reported (i.e. the concentration of inhibitor that gives 50% inhibition).

hACC2 = target: T2, hACC2 (Homo sapiens, UniProt O00763); assay: as above; type: biochemical; settings: recombinant hACC2, overall ACC activity
T2 construct: delete amino acids 1-148 and add Met-Gly in front of Lys149 in the final product; His tag (C); made in house; host or cells: baculovirus, Sf9 insect cells
T2 sequence (O00763 149-2458 limits assumed): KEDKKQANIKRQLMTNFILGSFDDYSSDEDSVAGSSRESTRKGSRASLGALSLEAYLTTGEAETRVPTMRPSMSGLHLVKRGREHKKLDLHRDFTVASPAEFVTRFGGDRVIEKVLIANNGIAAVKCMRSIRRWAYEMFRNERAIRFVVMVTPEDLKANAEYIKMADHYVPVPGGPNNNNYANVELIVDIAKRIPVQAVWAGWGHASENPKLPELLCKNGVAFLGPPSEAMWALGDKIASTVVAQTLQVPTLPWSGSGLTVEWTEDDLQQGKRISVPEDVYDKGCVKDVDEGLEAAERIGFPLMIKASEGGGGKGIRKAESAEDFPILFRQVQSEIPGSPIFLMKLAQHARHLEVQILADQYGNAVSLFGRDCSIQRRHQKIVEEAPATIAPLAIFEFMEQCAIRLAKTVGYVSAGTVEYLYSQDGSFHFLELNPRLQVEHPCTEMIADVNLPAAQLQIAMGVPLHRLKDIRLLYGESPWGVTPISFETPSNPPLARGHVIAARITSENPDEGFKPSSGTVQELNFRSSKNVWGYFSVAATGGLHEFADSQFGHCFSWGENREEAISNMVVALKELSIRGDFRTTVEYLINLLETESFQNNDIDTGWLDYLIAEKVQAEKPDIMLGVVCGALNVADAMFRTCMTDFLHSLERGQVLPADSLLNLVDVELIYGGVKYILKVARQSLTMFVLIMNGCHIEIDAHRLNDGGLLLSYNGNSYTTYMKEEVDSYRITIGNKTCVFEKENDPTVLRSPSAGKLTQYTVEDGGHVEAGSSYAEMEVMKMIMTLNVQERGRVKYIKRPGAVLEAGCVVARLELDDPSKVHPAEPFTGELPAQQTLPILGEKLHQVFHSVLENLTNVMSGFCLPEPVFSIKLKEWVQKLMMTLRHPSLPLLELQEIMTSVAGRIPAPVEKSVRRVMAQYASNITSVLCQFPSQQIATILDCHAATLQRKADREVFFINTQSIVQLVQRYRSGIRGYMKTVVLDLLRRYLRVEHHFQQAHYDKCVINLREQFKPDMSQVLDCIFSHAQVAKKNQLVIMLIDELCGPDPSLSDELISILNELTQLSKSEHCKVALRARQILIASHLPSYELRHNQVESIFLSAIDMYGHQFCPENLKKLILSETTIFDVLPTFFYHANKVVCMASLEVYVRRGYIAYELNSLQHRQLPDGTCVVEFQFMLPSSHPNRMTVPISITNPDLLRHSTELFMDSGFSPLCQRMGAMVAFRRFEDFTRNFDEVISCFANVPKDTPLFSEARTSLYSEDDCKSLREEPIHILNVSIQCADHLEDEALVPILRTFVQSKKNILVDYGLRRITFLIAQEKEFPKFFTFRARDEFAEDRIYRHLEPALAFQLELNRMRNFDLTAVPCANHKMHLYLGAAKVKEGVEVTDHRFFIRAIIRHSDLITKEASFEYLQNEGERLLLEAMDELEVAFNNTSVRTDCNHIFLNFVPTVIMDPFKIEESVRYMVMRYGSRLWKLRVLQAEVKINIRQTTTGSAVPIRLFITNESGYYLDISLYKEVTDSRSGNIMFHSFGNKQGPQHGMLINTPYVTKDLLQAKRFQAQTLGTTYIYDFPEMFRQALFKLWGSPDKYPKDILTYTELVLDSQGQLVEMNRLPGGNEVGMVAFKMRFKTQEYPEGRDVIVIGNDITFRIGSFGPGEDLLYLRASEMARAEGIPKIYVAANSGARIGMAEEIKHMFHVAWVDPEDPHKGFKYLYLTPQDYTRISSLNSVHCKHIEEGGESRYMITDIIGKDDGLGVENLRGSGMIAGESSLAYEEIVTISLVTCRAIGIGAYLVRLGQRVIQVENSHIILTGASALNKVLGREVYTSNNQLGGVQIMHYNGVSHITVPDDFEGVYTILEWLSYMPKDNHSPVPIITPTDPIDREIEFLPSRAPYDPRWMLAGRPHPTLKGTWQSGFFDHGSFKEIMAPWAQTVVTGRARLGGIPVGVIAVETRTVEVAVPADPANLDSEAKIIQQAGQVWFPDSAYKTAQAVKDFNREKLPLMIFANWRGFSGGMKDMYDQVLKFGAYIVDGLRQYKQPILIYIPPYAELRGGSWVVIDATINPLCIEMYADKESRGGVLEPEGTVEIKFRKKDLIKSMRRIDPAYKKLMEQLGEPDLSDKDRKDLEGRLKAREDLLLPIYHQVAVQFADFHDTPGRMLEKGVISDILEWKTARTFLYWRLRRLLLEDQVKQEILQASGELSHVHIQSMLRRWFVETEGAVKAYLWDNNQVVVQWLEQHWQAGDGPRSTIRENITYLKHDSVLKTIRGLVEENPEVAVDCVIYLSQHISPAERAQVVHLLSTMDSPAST
Method: as §1, §2

[1] = tested on: PC-3 human prostate cancer cells; assay: MTT Cell Proliferation Assay; type: cell-based; settings: 72 hours, read-out: Percent of Control PC-3
Method: (§3) The anti-proliferative activity of test compounds against human tumor cell lines is evaluated in vitro using the ATCC's MTT Cell Proliferation Assay (Catalog No. 30-100K). Cell lines are grown using media, serum, and culture conditions recommended by the ATCC. Stock cultures are allowed to grow to 70-80% confluence. Cells are seeded into 96-well culture plates at a predetermined density on day 0 in complete medium (0.1 mL). Plates are placed in a humidified incubator at 37° C. with 5% CO2 and 95% HEPA filtered room air for 24 hours. At this point compound (0.1 mL of 2× stock (in media)) is added to the indicated wells and the plates are returned to the incubator for 72 hours. Cell proliferation is measured by addition of MTT reagent to each well and incubated for an additional 4 hours, followed by addition of cell lysis/MTT solublization reagent and incubating overnight. […] Results are expressed as percent of control cells versus compound concentration. Compounds of the present invention, and salts thereof, were evaluated for anti-proliferative activity as described above.

[2] = tested on: A2780 human ovary cancer cells; assay: MTT Cell Proliferation Assay; type: cell-based; settings: 72 hours, read-out: Percent of Control A2780
Method: as §3

[3] = tested on: MDA-MB-231 human breast cancer cells; assay: MTT Cell Proliferation Assay; type: cell-based; settings: 72 hours, read-out: Percent of Control MDA-MB-231
Method: as §3

[4] = tested on: HCT-116 human colon cancer cells; assay: MTT Cell Proliferation Assay; type: cell-based; settings: 72 hours, read-out: Percent of Control HCT-116
Method: as §3

| IC50 (hACC1) | IC50 (hACC2) | SMILES | also measured |
| --- | --- | --- | --- |
| 0.02 µM | 0.018 µM | COC(=O)c1ccc2c(c1)C(=O)NC1(CCN(C(=O)c3cc(OC)c4cccc(OC)c4n3)CC1)O2 [Compound 201] | activity at 3.3 µM [1]: 52.7%; activity at 10 µM [1]: 37.1%; activity at 3.3 µM [2]: 83.2%; activity at 10 µM [2]: 46.4%; activity at 3.3 µM [3]: 82.5%; activity at 10 µM [3]: 61.5%; activity at 3.3 µM [4]: 59.8%; activity at 10 µM [4]: 46.8% |
| 1.9 µM | 0.45 µM | COc1cc2c(OC)cccc2cc1C(=O)N1CCC2(CC1)NC(=O)c1cc(Cl)ccc1O2 [Compound 131, 6-Chloro-1′-[(3,5-dimethoxynaphth-2-yl)carbonyl]spiro[2H-1,3-benzoxazin-2,4′-piperidin]-4-(3H)-one] |  |
| 0.033 µM | 0.048 µM | COc1ccc2c(c1)C(=O)NC1(CCN(C(=O)c3cc(OC)c4cccc(SC)c4n3)CC1)O2 [Compound 157] |  |
| 0.088 µM | 0.066 µM | COc1cc(C(=O)N2CCC3(CC2)NC(=O)c2cc(C)ccc2O3)nc2c(SC)cccc12 [Compound 148] |  |
| 2.2 µM | 1.1 µM | COc1cc2c(OC)cccc2cc1C(=O)N1CCC2(CC1)NC(=O)c1cc(Br)ccc1N2 [Compound 90] |  |
| 0.13 µM | 0.19 µM | COc1cccc2c(C)c(C(=O)N3CCC4(CC3)NC(=O)c3cc(C)ccc3O4)[nH]c12 [Compound 143] |  |
| 0.028 µM | 0.014 µM | COc1cc(C(=O)N2CCC3(CC2)NC(=O)c2cc(Cl)ccc2O3)cc2c(OC)cccc12 [Compound 171] |  |
| 0.8 µM | 0.3 µM | COc1cc2c(OC)cccc2cc1C(=O)N1CCC2(CC1)NC(=O)c1cc(NC(C)=O)ccc1O2 [Compound 132, 6-Acetamido-1′-[(3,5-dimethoxynaphth-2-yl)carbonyl]spiro[2H-1,3-benzoxazin-2,4′-piperidin]-4-(3H)-one] |  |
| 0.0062 µM | 0.003 µM | COc1cc(C(=O)N2CCC3(CC2)NC(=O)c2cc(NC(C)=O)ccc2O3)cc2c(OC)cccc12 [Compound 31, 6-Acetamido-1′-[(4,8-dimethoxynaphth-2-yl)carbonyl]spiro[2H-1,3-benzoxazin-2,4′-piperidin]-4-(3H)-one] |  |
| 0.016 µM | 0.011 µM | COc1cc(C(=O)N2CCC3(CC2)NC(=O)c2cc(-c4nnn[nH]4)ccc2O3)nc2c(OC)cccc12 [Compound 10] |  |
| 0.067 µM | 0.029 µM | COc1cc(C(=O)N2CCC3(CC2)NC(=O)c2cc(C)ccc2O3)nc2c(OC)cccc12 [Compound 137] |  |
| 0.26 µM | 0.31 µM | COc1ccc(OC)c2[nH]c(C(=O)N3CCC4(CC3)NC(=O)c3cc(NC(C)=O)ccc3O4)cc12 [Compound 17] |  |
| 0.075 µM | 0.055 µM | COc1cc(C(=O)N2CCC3(CC2)NC(=O)c2cc(NC(C)=O)ccc2O3)nc2c(SC)cccc12 [Compound 136] |  |
| 0.092 µM | 0.056 µM | COc1cc(C(=O)N2CCC3(CC2)NC(=O)c2cc(NC(C)=O)ccc2O3)nc2c(OC)cccc12 [Compound 9] |  |

The remaining lines, values behind:

| SMILES | IC50 (hACC1) | IC50 (hACC2) | also measured |
| --- | --- | --- | --- |
| COc1cccc2c(C)c(C(=O)N3CCC4(CC3)NC(=O)c3cc(OC(C)C)ccc3O4)[nH]c12 [Compound 180] | 0.036 µM | 0.042 µM | activity at 3.3 µM [1]: 79.5%; activity at 10 µM [1]: 56.8%; activity at 3.3 µM [2]: 79.4%; activity at 10 µM [2]: 21.2%; activity at 3.3 µM [3]: 68.7%; activity at 10 µM [3]: 9.3%; activity at 3.3 µM [4]: 52.6%; activity at 10 µM [4]: 29.8% |
| COc1ccc2c(c1)C(=O)NC1(CCN(C(=O)c3cc(OC)c4cccc(OC)c4c3)CC1)N2 [Compound 187] | 0.087 µM |  | activity at 3.3 µM [1]: 69.9%; activity at 10 µM [1]: 52.2%; activity at 3.3 µM [2]: 102%; activity at 10 µM [2]: 64.9%; activity at 3.3 µM [3]: 80.8%; activity at 10 µM [3]: 45.6%; activity at 3.3 µM [4]: 71%; activity at 10 µM [4]: 56.1% |
| O=C1NC2(CCN(C(=O)c3cccc(-c4cc[nH]n4)c3)CC2)Oc2ccc(Br)cc21 [Compound 103, 6-Bromo-1′-[3-(1H-pyrazol-3-yl)benzoyl]spiro[2H-1,3-benzoxazin-2,4′-piperidin]-4-(3H)-one] | 1.3 µM | 0.7 µM |  |
| COc1cc(C(=O)N2CCC3(CC2)NC(=O)c2cc(Br)ccc2N3)nc2c(C(C)C)cccc12 [Compound 91] | 2 µM | 3.7 µM |  |
| COc1cccc2ccc(C(=O)N3CCC4(CC3)NC(=O)c3cc(Br)ccc3O4)nc12 [Compound 44] | 0.74 µM | 0.49 µM |  |
| COc1cccc2c(C)c(C(=O)N3CCC4(CC3)NC(=O)c3cc(Br)ccc3O4)[nH]c12 [Compound 23] | 0.14 µM | 0.18 µM |  |
| COc1cc(C(=O)N2CCC3(CC2)NC(=O)c2cc(C(C)C)ccc2O3)cc2[nH]ncc12 [Compound 231] | 0.047 µM | 0.033 µM |  |
| COc1cc(C(=O)N2CCC3(CC2)NC(=O)c2cc(Br)ccc2O3)nc2c(SC)cccc12 [Compound 133] | 0.14 µM | 0.11 µM |  |
| COc1cc(C(=O)N2CCC3(CC2)NC(=O)c2cc(OC(C)C)ccc2O3)cc2[nH]ncc12 [Compound 230] | 0.11 µM | 0.085 µM |  |
| COc1cc(C(=O)N2CCC3(CC2)NC(=O)c2cc(Br)ccc2N3)nc2c(SC)cccc12 [Compound 93] | 0.43 µM | 1.1 µM |  |
| COc1ccc2c(c1)C(=O)NC1(CCN(C(=O)c3cc(OC)c4cccc(OC)c4n3)CC1)N2 [Compound 188] | 0.26 µM |  | activity at 3.3 µM [1]: 62.6%; activity at 10 µM [1]: 19%; activity at 3.3 µM [2]: 94.8%; activity at 10 µM [2]: 51.4%; activity at 3.3 µM [3]: 70.3%; activity at 10 µM [3]: 28.7%; activity at 3.3 µM [4]: 90.3%; activity at 10 µM [4]: 68.2% |
| O=C1NC2(CCN(C(=O)c3ccc4[nH]nnc4c3)CC2)Oc2ccc(Br)cc21 [Compound 110, 1′-[(1H-benzotriazol-5-yl)carbonyl]-6-bromospiro[2H-1,3-benzoxazin-2,4′-piperidin]-4-(3H)-one] | 6.7 µM | 4.6 µM |  |
